Paper PMC8911025, “Design, Synthesis, and Biological Evaluation of New Azulene-Containing Chalcones” (Materials, 2022)
In brackets after ≈: the same amount, converted by molar mass.

Legend:
[1] = system: S. aureus; parameters: method as in PMID 15801857, PMID 19275612, PMID 15142563; settings: literature chalcones Nr. Crtl. 1-38 of Table 7; cited from earlier work
[2] = system: S. aureus; assay: Known antibacterial activity of literature chalcones used for QSAR; type: cell-based, Staphylococcus aureus; settings: Aexp = 0.1 + log (k/MIC), k = 1.250
Procedure: The QSAR studies were carried out on 48 chalcones, including 10 synthesized azulenyl-chalcones, in order to identify the physicochemical parameter responsible for their antimicrobial activity against Staphylococcus aureus. The geometry optimization of the molecules was completed using PCModel and MOPAC programs. The descriptors were calculated using MOPAC, PRECLAV, and DRAGON software, and the descriptors and QSAR equations were selected using the PRECLAV algorithm. The best QSAR model was chosen based on the statistical parameters such as the square of the correlation coefficient (r^2), the Fischer’s value of significance (F), and the standard error of estimate(s).
Quantitative structure−activity relationship (QSAR) studies involving 38 chalcone derivatives (Table 7) with known antibacterial activity against S. aureus were developed. These studies were based upon observed activity and molecular descriptors. […] Two QSAR studies were performed: (i) one in which all 48 molecules were included in the calibration set and (ii) another with an external validation test. For the latter, 10 molecules were randomly chosen to be part of the validation test, whereas the rest were part of the calibration set. The result of the external validation depends strongly, among other things, on the procedures for the extraction of the calibration and validation sets from the initial database.

SMILES	MIC [1] [µg/mL]	Aexp [2]
COc1cc(/C=C/C(=O)c2ccccc2)ccc1O [Nr. Crtl. 1]	500 (≈ 1970 µM)	0.498
COc1cc(/C=C/C(=O)c2ccc(Cl)cc2)cc(OC)c1O [Nr. Crtl. 2]	500 (≈ 1570 µM)	0.498
O=C(/C=C/c1ccc(Cl)cc1Cl)c1ccc(O)c(F)c1 [Nr. Crtl. 3]	300 (≈ 964 µM)	0.720
O=C(O)c1ccc(C(=O)/C=C/c2ccccc2C(F)(F)F)cc1 [Nr. Crtl. 4]	300 (≈ 937 µM)	0.720
O=C(O)c1ccc(C(=O)/C=C/c2cccc([N+](=O)[O-])c2)cc1 [Nr. Crtl. 5]	300 (≈ 1010 µM)	0.720
O=C(/C=C/c1cccc(O)c1)c1ccccc1 [Nr. Crtl. 6]	250 (≈ 1110 µM)	0.799
COc1ccc(/C=C/C(=O)c2ccccc2)cc1O [Nr. Crtl. 7]	250 (≈ 983 µM)	0.799
COc1cccc(/C=C/C(=O)c2ccc(Cl)cc2)c1O [Nr. Crtl. 8]	250 (≈ 866 µM)	0.799
COc1cc(/C=C/C(=O)c2ccc(Cl)cc2)ccc1O [Nr. Crtl. 9]	250 (≈ 866 µM)	0.799
O=C(/C=C/c1ccc(Cl)cc1Cl)c1cc(F)c(O)c(F)c1 [Nr. Crtl. 10]	150 (≈ 456 µM)	1.021
O=C(O)c1ccc(C(=O)/C=C/c2ccc(C(F)(F)F)cc2)cc1 [Nr. Crtl. 11]	150 (≈ 468 µM)	1.021
O=C(O)c1ccc(C(=O)/C=C/c2ccc(Cl)cc2)cc1 [Nr. Crtl. 12]	150 (≈ 523 µM)	1.021
O=C(O)c1ccc(C(=O)/C=C/c2ccccc2Cl)cc1 [Nr. Crtl. 13]	150 (≈ 523 µM)	1.021
O=C(O)c1ccc(C(=O)/C=C/c2ccccc2Br)cc1 [Nr. Crtl. 14]	150 (≈ 453 µM)	1.021
O=C(O)c1ccc(C(=O)/C=C/c2cc(F)cc(F)c2)cc1 [Nr. Crtl. 15]	150 (≈ 520 µM)	1.021
O=C(/C=C/c1ccc(O)cc1)c1ccccc1 [Nr. Crtl. 16]	125 (≈ 557 µM)	1.100
O=C(/C=C/c1ccc(O)c(O)c1)c1ccccc1 [Nr. Crtl. 17]	125 (≈ 520 µM)	1.100
COc1cccc(/C=C/C(=O)c2ccccc2)c1O [Nr. Crtl. 18]	125 (≈ 492 µM)	1.100
O=C(/C=C/c1ccccc1O)c1ccc(Cl)cc1 [Nr. Crtl. 19]	125 (≈ 483 µM)	1.100

SMILES	MIC [1] [µg/mL]	Aexp [2]
O=C(/C=C/c1cccc(O)c1)c1ccc(Cl)cc1 [Nr. Crtl. 20]	125 (≈ 483 µM)	1.100
O=C(/C=C/c1ccc(O)cc1)c1ccc(Cl)cc1 [Nr. Crtl. 21]	125 (≈ 483 µM)	1.100
O=C(/C=C/c1ccc(O)c(O)c1)c1ccc(Cl)cc1 [Nr. Crtl. 22]	125 (≈ 455 µM)	1.100
O=C(O)c1ccc(C(=O)/C=C/c2cccc(Cl)c2)cc1 [Nr. Crtl. 23]	75 (≈ 262 µM)	1.322
O=C(O)c1ccc(C(=O)/C=C/c2cccc(Br)c2)cc1 [Nr. Crtl. 24]	75 (≈ 226 µM)	1.322
Cc1cc(C)cc(/C=C/C(=O)c2ccc(C(=O)O)cc2)c1 [Nr. Crtl. 25]	75 (≈ 268 µM)	1.322
COc1ccc(/C=C/C(=O)c2ccc(Cl)cc2)cc1O [Nr. Crtl. 26]	62.5 (≈ 216 µM)	1.401
O=C(/C=C/c1ccccc1O)c1ccccc1 [Nr. Crtl. 27]	62.5 (≈ 279 µM)	1.401
O=C(O)c1ccc(C(=O)/C=C/c2cccc(C(F)(F)F)c2)cc1 [Nr. Crtl. 28]	40 (≈ 125 µM)	1.595
O=C(O)c1ccc(C(=O)/C=C/c2cc(Cl)cc(Cl)c2)cc1 [Nr. Crtl. 29]	40 (≈ 125 µM)	1.595
O=C(O)c1ccc(C(=O)/C=C/c2ccc(Cl)cc2Cl)cc1 [Nr. Crtl. 30]	40 (≈ 125 µM)	1.595
O=C(/C=C/c1ccc(Cl)cc1Cl)c1ccc(O)cc1 [Nr. Crtl. 31]	20 (≈ 68.2 µM)	1.896
O=C(/C=C/c1ccc(Cl)cc1Cl)c1ccc(O)cc1F [Nr. Crtl. 32]	20 (≈ 64.3 µM)	1.896
O=C(/C=C/c1cccc(Br)c1)c1ccc(O)cc1 [Nr. Crtl. 33]	20 (≈ 66 µM)	1.896
O=C(/C=C/c1cccc(Cl)c1Cl)c1ccc(O)cc1 [Nr. Crtl. 34]	15 (≈ 51.2 µM)	2.021
O=C(/C=C/c1c(Cl)ccc(Cl)c1Cl)c1ccc(O)cc1 [Nr. Crtl. 35]	10 (≈ 30.5 µM)	2.197
O=C(/C=C/c1cc(C(F)(F)F)cc(C(F)(F)F)c1)c1ccc(O)cc1 [Nr. Crtl. 36]	3 (≈ 8.33 µM)	2.720
O=C(O)c1ccc(C(=O)/C=C/c2cc(C(F)(F)F)cc(C(F)(F)F)c2)cc1 [Nr. Crtl. 37]	2 (≈ 5.15 µM)	2.896
O=C(O)c1ccc(C(=O)/C=C/c2cc(Br)cc(Br)c2)cc1 [Nr. Crtl. 38]	2 (≈ 4.88 µM)	2.896
